Test results published in EP0209237A2, “Vinyl-glycyl-amino-beta-lactam derivatives” (BEECHAM GROUP PLC, priority 1985, dated 1987).
Values after ≈ are worked out from the molar mass of the structure shown. Like-named read-outs stand apart in the source and are kept apart here.

Tests used:
[1] = Squirrel monkey plasma levels; format: in vivo; conditions: for concentration at 0.25 h: 15 minutes, read-out: Plasma Levels, Time in Minutes 15; for concentration at 0.5 h: 30 minutes, read-out: Plasma Levels, Time in Minutes 30; for concentration at 1 h: 60 minutes, read-out: Plasma Levels, Time in Minutes 60; for concentration at 2 h: 120 minutes, read-out: Plasma Levels, Time in Minutes 120; for concentration at 4 h: 240 minutes, read-out: Plasma Levels, Time in Minutes 240; for concentration at 6 h: 360 minutes, read-out: Plasma Levels, Time in Minutes 360; for AUC: read-out: Area under the curve
[2] = system: E.coli NCTC 10418; assay: Minimum Inhibitory Concentration (MIC), agar dilution; format: cell-based; conditions: 5% v/v horse blood agar, two-fold dilutions, read after 24 hours; unit assumed
Description: (§1) The following Table gives Minimum Inhibitory Concentration (MIC) values for some of the compounds of the invention against S.pyogenes CN 10 and E.coli NCTC 10418. The E. coli was grown in tryptone soya broth and the S. pyogenes was grown in Todd Hewitt broth. The microorganisms were grown for 24hours and lul samples were then inoculated on to agar plates (comprising 5% v/v live horse blood agar) to which had been added the compounds of the invention at a series of two-fold dilutions.

[3] = system: S.pyogenes CN 10; assay: as above; format: cell-based; conditions: 5% v/v horse blood agar, two-fold dilutions, read after 24 hours; unit assumed
Description: as §1

[4] = system: S.aureus Smith; assay: MIC against the infecting strain (Table 4); format: cell-based; conditions: Staphylococcus aureus
[5] = system: S.agalactiae 2798; assay: MIC against the infecting strain (Table 4); format: cell-based; conditions: Streptococcus agalactiae
[6] = system: E.coli 96 R-; assay: MIC against the infecting strain (Table 4); format: cell-based; conditions: Escherichia coli
[7] = system: S.aureus Smith; assay: CD50, protection of mice infected with a lethal inoculum; format: in vivo; conditions: for ED50: Staphylococcus aureus, read-out: Total CD50
Text: (§2) The following Table gives CD50 values obtained after infecting groups of mice with a lethal inoculum of various bacteria and treating the mice with the compounds quoted. The CD50 value then represents the amount of compound necessary to protect 50% of the animals.

[8] = system: E.coli 96 R-; assay: as above; format: in vivo; conditions: for ED50: Escherichia coli, 96R, read-out: Total CD50
Text: as §2

[9] = system: S.agalactiae 2798; assay: as above; format: in vivo; conditions: for ED50: read-out: Total CD50
Text: as §2

[10] = Streptococcus agalactiae, 2798, po, S.agalactiae 2798, p.o.

## CC1(C)S[C@@H]2[C@H](NC(=O)[C@H](N)c3ccc(O)cc3)C(=O)N2[C@H]1C(=O)O [Amoxycillin, reference compound]
[1]
  concentration at 0.25 h: 4800 ng/mL
  concentration at 0.5 h: 9700 ng/mL
  concentration at 1 h: 12600 ng/mL
  concentration at 2 h: 6700 ng/mL
  concentration at 4 h: 1100 ng/mL
  concentration at 6 h: 300 ng/mL
  AUC: 26200 ng·h/mL

## C=C[C@@H](N)C(=O)N[C@@H]1C(=O)N2[C@@H]1SC(C)(C)[C@@H]2C(=O)O [Example 1, 6β-(D-2-Aminobut-3-enamido)penicillanic acid]
[1]
  concentration at 0.25 h: 4000 ng/mL
  concentration at 0.5 h: 14700 ng/mL
  concentration at 1 h: 32700 ng/mL
  concentration at 2 h: 15700 ng/mL
  concentration at 4 h: 2400 ng/mL
  concentration at 6 h: 800 ng/mL
  AUC: 59700 ng·h/mL
[2]
  MIC E. coli NCTC 10418: 8 µg/mL (≈ 26.7 µM)
[3]
  MIC S. pyogenes CN 10: 0.03 µg/mL (≈ 0.1 µM)

## C=C(c1ccccc1)[C@@H](N)C(=O)N[C@@H]1C(=O)N2[C@@H]1SC(C)(C)[C@@H]2C(=O)O [Example 4 (D-stereoisomer), 6β-(D-2-amino-3-phenylbut-3-enamido)penicillanic acid]
[2]
  MIC E. coli NCTC 10418: 8 µg/mL (≈ 21.3 µM)
[3]
  MIC S. pyogenes CN 10: < 0.03 µg/mL

## CC1(C)S[C@@H]2[C@H](NC(=O)[C@H](N)C=C(Cl)Cl)C(=O)N2[C@H]1C(=O)O [Example 5 (D-stereoisomer), 6β-(D-2-amino-4,4-dichlorobut-3-enamido)penicillanic acid]
[1]
  concentration at 0.25 h: 20700 ng/mL
  concentration at 0.5 h: 28800 ng/mL
  concentration at 1 h: 24300 ng/mL
  concentration at 2 h: 16800 ng/mL
  concentration at 4 h: 2400 ng/mL
  concentration at 6 h: 1400 ng/mL
  AUC: 63000 ng·h/mL
[4]
  MIC: 0.06 µg/mL (≈ 0.163 µM)
[5]
  MIC: 0.06 µg/mL (≈ 0.163 µM)
[6]
  MIC: 2 µg/mL (≈ 5.43 µM)
[7]; sc
  ED50: 0.08 mg/kg
[7]; s.c.
  Total CD50: 0.09 mg/kg
[8]; po
  ED50: 40 mg/kg
[8]; sc
  ED50: 22 mg/kg
[9]; S.agalactiae 2798, p.o.
  Total CD50: 0.6 mg/kg
[9]; [10]
  ED50: 0.9 mg/kg
[2]
  MIC E. coli NCTC 10418: 2 µg/mL (≈ 5.43 µM)
[3]
  MIC S. pyogenes CN 10: < 0.03 µg/mL

## C=C(C)[C@@H](N)C(=O)N[C@@H]1C(=O)N2[C@@H]1SC(C)(C)[C@@H]2C(=O)O [Example 6, 6,β-(D-2-Amino-3-methylbut-3-enamido)penicillanic-acid]
[1]
  concentration at 0.25 h: 8700 ng/mL
  concentration at 0.5 h: 16400 ng/mL
  concentration at 1 h: 20000 ng/mL
  concentration at 2 h: 13000 ng/mL
  concentration at 4 h: 2200 ng/mL
  concentration at 6 h: 900 ng/mL
  AUC: 46500 ng·h/mL
[4]
  MIC: 0.12 µg/mL (≈ 0.383 µM)
[5]
  MIC: 0.25 µg/mL (≈ 0.798 µM)
[6]
  MIC: 4 µg/mL (≈ 12.8 µM)
[7]; po
  ED50: 0.08 mg/kg
[7]; sc
  ED50: 0.15 mg/kg
[7]; p.o.
  Total CD50: 0.10 mg/kg
[8]; po
  ED50: 32 mg/kg
[8]; p.o.
  Total CD50: 40 mg/kg
[9]; S.agalactiae 2798, p.o.
  Total CD50: 3.8 mg/kg
[9]; S.agalactiae 2798, s.c.
  Total CD50: 1.1 mg/kg
[9]; [10]
  ED50: 3.6 mg/kg
[9]; Streptococcus agalactiae, 2798, sc, S.agalactiae 2798, s.c.
  ED50: 1.5 mg/kg
[2]
  MIC E. coli NCTC 10418: 2 µg/mL (≈ 6.38 µM)
[3]
  MIC S. pyogenes CN 10: < 0.03 µg/mL

## C=C(C)[C@@H](N)C(=O)N[C@@H]1C(=O)N2C(C(=O)O)=C(COC(C)=O)CS[C@H]12 [Example 7, 7,β-(D-2-Amino-3-methylbut-3-enamido)cephalosporanic acid]
[2]
  MIC E. coli NCTC 10418: 32 µg/mL (≈ 86.6 µM)
[3]
  MIC S. pyogenes CN 10: 0.25 µg/mL (≈ 0.677 µM)

## C=C(C)[C@@H](N)C(=O)N[C@@H]1C(=O)N2C(C(=O)O)=C(C)CS[C@H]12 [Example 8, 7,β-[D-2-Amino-3-methylbut-3-enamido]-3-desacetoxy cephalosporanic acid]
[3]
  MIC S. pyogenes CN 10: 2 µg/mL (≈ 6.42 µM)

## C=C(CC)[C@@H](N)C(=O)N[C@@H]1C(=O)N2[C@@H]1SC(C)(C)[C@@H]2C(=O)O [Example 9 (D-stereoisomer), 6,β-(D-2-amino-3-ethylbut-3-enamido)penicillanic acid]
[2]
  MIC E. coli NCTC 10418: 2 µg/mL (≈ 6.11 µM)
[3]
  MIC S. pyogenes CN 10: < 0.03 µg/mL

## C/C=C(\C)[C@@H](N)C(=O)N[C@@H]1C(=O)N2[C@@H]1SC(C)(C)[C@@H]2C(=O)O [Example 10 (D-stereoisomer), 6β-(D-2-amino-3-methylpent-3(E)-enamido)penicillanic acid]
[2]
  MIC E. coli NCTC 10418: 2 µg/mL (≈ 6.11 µM)
[3]
  MIC S. pyogenes CN 10: < 0.06 µg/mL

## C/C=C/[C@@H](N)C(=O)N[C@@H]1C(=O)N2[C@@H]1SC(C)(C)[C@@H]2C(=O)O [Example 11 (D-stereoisomer), 6β-(D-2-Amino-pent-3(E)-enamido)penicillanic acid]
[2]
  MIC E. coli NCTC 10418: 8 µg/mL (≈ 25.5 µM)
[3]
  MIC S. pyogenes CN 10: < 0.06 µg/mL

## C=C/C=C(\C)[C@@H](N)C(=O)N[C@@H]1C(=O)N2[C@@H]1SC(C)(C)[C@@H]2C(=O)O [Example 12 (D-stereoisomer), 6β-(D-2-amino-3-methylhex-3(E), 5-dienamido)penicillanic acid]
[2]
  MIC E. coli NCTC 10418: 2 µg/mL (≈ 5.89 µM)
[3]
  MIC S. pyogenes CN 10: 0.06 µg/mL (≈ 0.177 µM)

## CC/C=C/[C@@H](N)C(=O)N[C@@H]1C(=O)N2[C@@H]1SC(C)(C)[C@@H]2C(=O)O [Example 13 (D-stereoisomer), 6p-(D-2-aminohex-3(E)-enamido)penicillanic acid]
[2]
  MIC E. coli NCTC 10418: 4 µg/mL (≈ 12.2 µM)
[3]
  MIC S. pyogenes CN 10: < 0.06 µg/mL

## CC1(C)S[C@@H]2[C@H](NC(=O)[C@H](N)/C=C/C3CCCCC3)C(=O)N2[C@H]1C(=O)O [Example 14 (D-stereoisomer), 6β-(D-2-amino-4-cyclohexylbut-3(E)-enamido)penicillanic acid]
[2]
  MIC E. coli NCTC 10418: 16 µg/mL (≈ 41.9 µM)
[3]
  MIC S. pyogenes CN 10: < 0.06 µg/mL

## CC1(C)S[C@@H]2[C@H](NC(=O)[C@H](N)/C=C/c3ccccc3)C(=O)N2[C@H]1C(=O)O [Example 15 (D-stereoisomer), 6p-(D-2-amino-4-phenylbut-3(E)enamido)penicillanic acid]
[2]
  MIC E. coli NCTC 10418: 16 µg/mL (≈ 42.6 µM)
[3]
  MIC S. pyogenes CN 10: < 0.06 µg/mL

## CC1(C)S[C@@H]2[C@H](NC(=O)C(N)/C=C/c3ccc(Cl)cc3)C(=O)N2[C@H]1C(=O)O (stereo partly drawn) [Example 16, 6β-[D,L-2--Amino-4-(4-chlorophenyl)but-3(E)-enamido]penicillanic acid]
[2]
  MIC E. coli NCTC 10418: 16 µg/mL (≈ 39 µM)
[3]
  MIC S. pyogenes CN 10: < 0.06 µg/mL

## C=C([C@@H](N)C(=O)N[C@@H]1C(=O)N2[C@@H]1SC(C)(C)[C@@H]2C(=O)O)C(F)(F)F [Example 17 (D-stereoisomer), 6,P-(D-2-amino-3-trifluoromethylbut-3-enamido)penicillanic acid]
[2]
  MIC E. coli NCTC 10418: 4 µg/mL (≈ 10.9 µM)
[3]
  MIC S. pyogenes CN 10: < 0.06 µg/mL

## C=C(c1cccs1)[C@@H](N)C(=O)N[C@@H]1C(=O)N2[C@@H]1SC(C)(C)[C@@H]2C(=O)O [Example 18 (D-stereoisomer), 6β-(D-2-amino-3-thien-2-yl-but-3-enamido)penicillanic acid]
[2]
  MIC E. coli NCTC 10418: 16 µg/mL (≈ 41.9 µM)
[3]
  MIC S. pyogenes CN 10: 0.06 µg/mL (≈ 0.157 µM)

## CC1(C)S[C@@H]2[C@H](NC(=O)C(N)/C(=C/Cl)c3cccs3)C(=O)N2[C@H]1C(=O)O (stereo partly drawn) [Example 19, 6β-(D,L-2-Amino-4-chloro-3-thien-2-ylbut-3(Z)-enamido)penicillanic acid]
[2]
  MIC E. coli NCTC 10418: 16 µg/mL (≈ 38.5 µM)
[3]
  MIC S. pyogenes CN 10: < 0.03 µg/mL

## CC1(C)S[C@@H]2[C@H](NC(=O)C(N)/C(=C\Cl)c3cccs3)C(=O)N2[C@H]1C(=O)O (stereo partly drawn) [Example 20, 6B-(D,L-2-Amino-4-chloro-3-thien-2-ylbut-3(E)-enamido)penicillanic acid]
[2]
  MIC E. coli NCTC 10418: 32 µg/mL (≈ 76.9 µM)
[3]
  MIC S. pyogenes CN 10: 0.06 µg/mL (≈ 0.144 µM)

## C/C(=C\Cl)[C@@H](N)C(=O)N[C@@H]1C(=O)N2[C@@H]1SC(C)(C)[C@@H]2C(=O)O [Example 21 (D-stereoisomer), 6β-(D-2-Amino-4-chloro-3-methylbut-3(E)-enamido)-penicillanic acid]
[2]
  MIC E. coli NCTC 10418: 4 µg/mL (≈ 11.5 µM)
[3]
  MIC S. pyogenes CN 10: 0.06 µg/mL (≈ 0.173 µM)

## C/C(=C/Cl)C(N)C(=O)N[C@@H]1C(=O)N2[C@@H]1SC(C)(C)[C@@H]2C(=O)O (stereo partly drawn) [Example 22, 6β-(D,L-2-Amino-4-chloro-3-methylbut-3(Z)-enamido) penicillanic acid]
[2]
  MIC E. coli NCTC 10418: 8 µg/mL (≈ 23 µM)
[3]
  MIC S. pyogenes CN 10: 0.12 µg/mL (≈ 0.345 µM)

## CC(=O)OC/C=C/[C@@H](N)C(=O)N[C@@H]1C(=O)N2[C@@H]1SC(C)(C)[C@@H]2C(=O)O [Example 23, 6β-[5-Acetoxy-D-2-aminopent-3(E)-enamido] penicillanic acid]
[2]
  MIC E. coli NCTC 10418: 32 µg/mL (≈ 86.2 µM)
[3]
  MIC S. pyogenes CN 10: 0.12 µg/mL (≈ 0.323 µM)
